Source: ChEMBL document CHEMBL1124696, “Nucleoside peptides. 10. Synthesis and T-cell immunostimulatory properties of certain peptide derivatives of 6-azacadeguomycin” (1989)

How the values were obtained:
Format in all cases: functional
[1] = organism: Homo sapiens; assay: Mitogen-induced human lymphocyte proliferation measured by incorporation of [3H]thymidine in lymphocytes with Concanavalin A (Con A) at a concentration of 0.25 ug with compound at 10 uM
[2] = organism: Homo sapiens; assay: Mitogen-induced human lymphocyte proliferation measured by incorporation of [3H]thymidine in lymphocytes with Phytohemagglutininin at a concentration of 0.25 ug with compound at 1 uM
[3] = organism: Homo sapiens; assay: Mitogen-induced human lymphocyte proliferation measured by incorporation of [3H]thymidine in lymphocytes with Concanavalin A (Con A) at a concentration of 0.25 ug with compound at 50 uM
[4] = organism: Homo sapiens; assay: Mitogen-induced human lymphocyte proliferation measured by incorporation of [3H]thymidine in lymphocytes with Pokeweed mitogen at a concentration of 1/2500 ug without compound
[5] = organism: Homo sapiens; assay: Mitogen-induced human lymphocyte proliferation measured by incorporation of [3H]thymidine in lymphocytes with Phytohemagglutininin at a concentration of 0.125 ug without compound
[6] = organism: Homo sapiens; assay: Mitogen-induced human lymphocyte proliferation measured by incorporation of [3H]thymidine in lymphocytes with Pokeweed mitogen at a concentration of 1/2500 ug with compound at 0.1 uM
[7] = organism: Homo sapiens; assay: Mitogen-induced human lymphocyte proliferation measured by incorporation of [3H]thymidine in lymphocytes with Phytohemagglutininin at a concentration of 0.25 ug with compound at 400 uM
[8] = organism: Homo sapiens; assay: Mitogen-induced human lymphocyte proliferation measured by incorporation of [3H]thymidine in lymphocytes with Concanavalin A (Con A) at a concentration of 0.25 ug with out compound
[9] = organism: Homo sapiens; assay: Mitogen-induced human lymphocyte proliferation measured by incorporation of [3H]thymidine in lymphocytes with Pokeweed mitogen at a concentration of 1/2500 ug with compound at 50 uM
[10] = organism: Homo sapiens; assay: Mitogen-induced human lymphocyte proliferation measured by incorporation of [3H]thymidine in lymphocytes with Concanavalin A (Con A) at a concentration of 0.25 ug with compound at 1 uM
[11] = organism: Homo sapiens; assay: Mitogen-induced human lymphocyte proliferation measured by incorporation of [3H]thymidine in lymphocytes with Phytohemagglutininin at a concentration of 0.25 ug with compound at 10 uM
[12] = organism: Homo sapiens; assay: Mitogen-induced human lymphocyte proliferation measured by incorporation of [3H]thymidine in lymphocytes with Phytohemagglutininin at a concentration of 0.25 ug with compound at 50 uM
[13] = organism: Homo sapiens; assay: Mitogen-induced human lymphocyte proliferation measured by incorporation of [3H]thymidine in lymphocytes with Pokeweed mitogen at a concentration of 1/2500 ug with compound at 1 uM.
[14] = organism: Homo sapiens; assay: Mitogen-induced human lymphocyte proliferation measured by incorporation of [3H]thymidine in lymphocytes with Pokeweed mitogen at a concentration of 1/2500 ug with compound at 10 uM
[15] = organism: Homo sapiens; assay: Mitogen-induced human lymphocyte proliferation measured by incorporation of [3H]thymidine in lymphocytes with Concanavalin A (Con A) at a concentration of 0.25 ug with compound at 0.1 uM
[16] = organism: Homo sapiens; assay: Mitogen-induced human lymphocyte proliferation measured by incorporation of [3H]-thymidine in lymphocytes with Phytohemagglutininin at a concentration of 0.25 ug with compound at 0.1 uM
[17] = organism: Homo sapiens; assay: Mitogen-induced human lymphocyte proliferation measured by incorporation of [3H]thymidine in lymphocytes with Pokeweed mitogen at a concentration of 1/2500 ug with compound at 400 uM
[18] = organism: Homo sapiens; assay: Mitogen-induced human lymphocyte proliferation measured by incorporation of [3H]thymidine in lymphocytes with Concanavalin A at a concentration of 0.25 ug with compound at 400 uM
[19] = organism: Homo sapiens; assay: Mitogen-induced human lymphocyte proliferation measured by incorporation of [3H]thymidine in lymphocytes with Pokeweed mitogen at a concentration of 1/2500 ug with out compound
[20] = organism: Homo sapiens; assay: Mitogen-induced human lymphocyte proliferation measured by incorporation of [3H]thymidine in lymphocytes with Pokeweed mitogen at a concentration of 1/2500 ug with compound at 1 uM
[21] = organism: Homo sapiens; assay: Mitogen-induced human lymphocyte proliferation measured by incorporation of [3H]thymidine in lymphocytes with Phytohemagglutininin at a concentration of 0.125 ug with compound at 0.1 uM
[22] = organism: Homo sapiens; assay: Mitogen-induced human lymphocyte proliferation measured by incorporation of [3H]thymidine in lymphocytes with Phytohemagglutininin at a concentration of 0.125 ug with out compound
[23] = organism: Homo sapiens; assay: Mitogen-induced human lymphocyte proliferation measured by incorporation of [3H]thymidine in lymphocytes with Phytohemagglutininin at a concentration of 0.125 ug with compound at 400 uM
[24] = organism: Homo sapiens; assay: Mitogen-induced human lymphocyte proliferation measured by incorporation of [3H]-thymidine in lymphocytes with Phytohemagglutininin at a concentration of 0.125 ug with compound at 50 uM
[25] = organism: Homo sapiens; assay: Mitogen-induced human lymphocyte proliferation measured by incorporation of [3H]thymidine in lymphocytes with Concanavalin A (Con A) at a concentration of 0.25 microg with compound at 10 uM
[26] = organism: Homo sapiens; assay: Mitogen-induced human lymphocyte proliferation measured by incorporation of [3H]thymidine in lymphocytes with Phytohemagglutininin at a concentration of 0.125 ug with compound at 10 uM
[27] = organism: Homo sapiens; assay: Mitogen-induced human lymphocyte proliferation measured by incorporation of [3H]thymidine in lymphocytes with Phytohemagglutininin at a concentration of 0.125 ug with compound at 1 uM
[28] = organism: Homo sapiens; assay: Mitogen-induced human lymphocyte proliferation measured by incorporation of [3H]thymidine in lymphocytes with Concanavalin A (Con A) at a concentration of 0.5 ug with compound at 1 uM
[29] = organism: Homo sapiens; assay: Mitogen-induced human lymphocyte proliferation measured by incorporation of [3H]thymidine in lymphocytes with Concanavalin A (Con A) at a concentration of 0.5 ug with out compound
[30] = organism: Homo sapiens; assay: Mitogen-induced human lymphocyte proliferation measured by incorporation of [3H]thymidine in lymphocytes with Concanavalin A (Con A) at a concentration of 0.5 ug with compound at 10 uM
[31] = organism: Homo sapiens; assay: Mitogen-induced human lymphocyte proliferation measured by incorporation of [3H]thymidine in lymphocytes with Concanavalin A at a concentration of 0.5 ug with compound at 400 uM
[32] = organism: Homo sapiens; assay: Mitogen-induced human lymphocyte proliferation measured by incorporation of [3H]thymidine in lymphocytes with Concanavalin A (Con A) at a concentration of 0.5 ug with compound at 50 uM
[33] = organism: Homo sapiens; assay: Mitogen-induced human lymphocyte proliferation measured by incorporation of [3H]-thymidine in lymphocytes with Pokeweed mitogen at a concentration of 1/2500 ug with out compound
[34] = organism: Homo sapiens; assay: Mitogen-induced human lymphocyte proliferation measured by incorporation of [3H]thymidine in lymphocytes with Concanavalin A (Con A) at a concentration of 0.5 ug with compound at 0.1 uM
[35] = organism: Homo sapiens; assay: Mitogen-induced human lymphocyte proliferation measured by incorporation of [3H]-thymidine in lymphocytes with Pokeweed mitogen at a concentration of 1/2500 ug with compound at 1 uM
[36] = organism: Homo sapiens; assay: Mitogen-induced human lymphocyte proliferation measured by incorporation of [3H]thymidine in lymphocytes with Phytohemagglutininin at a concentration of 0.25 ug with out compound
[37] = organism: Homo sapiens; assay: Mitogen-induced human lymphocyte proliferation measured by incorporation of [3H]-thymidine in lymphocytes with Pokeweed mitogen at a concentration of 1/5000 ug with compound at 50 uM
[38] = organism: Homo sapiens; assay: Mitogen-induced human lymphocyte proliferation measured by incorporation of [3H]thymidine in lymphocytes with Pokeweed mitogen at a concentration of 1/5000 ug with compound at 10 uM
[39] = organism: Homo sapiens; assay: Mitogen-induced human lymphocyte proliferation measured by incorporation of [3H]thymidine in lymphocytes with Pokeweed mitogen at a concentration of 1/5000 ug with compound at 1 uM
[40] = organism: Homo sapiens; assay: Mitogen-induced human lymphocyte proliferation measured by incorporation of [3H]thymidine in lymphocytes with Pokeweed mitogen at a concentration of 1/5000 ug with compound at 0.1 uM
[41] = organism: Homo sapiens; assay: Mitogen-induced human lymphocyte proliferation measured by incorporation of [3H]thymidine in lymphocytes with Phytohemagglutininin at a concentration of 0.125 ug with compound at 50 uM
[42] = organism: Homo sapiens; assay: Mitogen-induced human lymphocyte proliferation measured by incorporation of [3H]thymidine in lymphocytes with Phytohemagglutininin at a concentration of 0.25 ug with compound at 0.1 uM
[43] = organism: Homo sapiens; assay: Mitogen-induced human lymphocyte proliferation measured by incorporation of [3H]thymidine in lymphocytes with Pokeweed mitogen at a concentration of 1/5000 ug with compound at 400 uM
[44] = organism: Homo sapiens; assay: Mitogen-induced human lymphocyte proliferation measured by incorporation of [3H]thymidine in lymphocytes with Pokeweed mitogen at a concentration of 1/5000 ug with out compound

| Structure (SMILES) | Incorporation [2] | Incorporation [3] | Incorporation [6] | Incorporation [7] | Incorporation [8] | Incorporation [9] | Incorporation [10] | Incorporation [11] | Incorporation [12] | Incorporation [14] | Incorporation [15] | Incorporation [17] | Incorporation [18] | Incorporation [20] | Incorporation [21] | Incorporation [22] | Incorporation [23] | Incorporation [26] | Incorporation [27] | Incorporation [33] | other results |
| --- | --- | --- | --- | --- | --- | --- | --- | --- | --- | --- | --- | --- | --- | --- | --- | --- | --- | --- | --- | --- | --- |
| Nc1nc2c(c(C(=O)O)nn2C2O[C@H](CO)[C@@H](O)[C@H]2O)c(=O)[nH]1 (some centres not stated) | 28393 | 22446 | 35813 | 29655 | 21143 | 34808 | 21319 | 32955 | 31662 | 36867 | 20186 | 34537 | 22619 | – | – | – | – | – | – | – | Incorporation [1]: 27385; Incorporation [4]: 35867; Incorporation [5]: 28436; Incorporation [13]: 39189; Incorporation [16]: 25106 |
| NC(=O)[C@H](Cc1ccccc1)NC(=O)c1nn(C2O[C@H](CO)[C@@H](O)[C@H]2O)c2nc(N)[nH]c(=O)c12 (some centres not stated) | – | 27642 | 39180 | – | 27326 | 40511 | 26510 | – | – | 44634 | 24317 | 37204 | 30812 | 41073 | 26149 | 38473 | 42771 | 54960 | 35042 | – | Incorporation [19]: 31047; Incorporation [24]: 53121; Incorporation [25]: 29989 |
| NC(=O)CNC(=O)c1nn(C2O[C@H](CO)[C@@H](O)[C@H]2O)c2nc(N)[nH]c(=O)c12 (some centres not stated) | – | – | 44670 | – | – | 39719 | – | – | – | 44370 | – | 40023 | – | 42288 | 27956 | 35075 | 66017 | 47343 | 32413 | 39468 | Incorporation [28]: 40503; Incorporation [29]: 43401; Incorporation [30]: 46662; Incorporation [31]: 43649; Incorporation [24]: 50056; Incorporation [32]: 44360; Incorporation [34]: 43954 |
| NC(=O)CC[C@H](NC(=O)c1nn(C2O[C@H](CO)[C@@H](O)[C@H]2O)c2nc(N)[nH]c(=O)c12)C(N)=O (some centres not stated) | 50331 | 28119 | 46067 | 39824 | 25758 | 44234 | 30068 | 48588 | 43877 | 45049 | 26181 | 29854 | 24167 | – | – | – | – | – | – | 40326 | Incorporation [1]: 31799; Incorporation [35]: 39260; Incorporation [36]: 57799; Incorporation [16]: 49448 |
| N=C(N)NCCC[C@H](NC(=O)[C@H](Cc1ccccc1)NC(=O)c1nn(C2O[C@H](CO)[C@@H](O)[C@H]2O)c2nc(N)[nH]c(=O)c12)C(N)=O (some centres not stated) | 46087 | – | 17344 | 33862 | – | 19755 | – | 36688 | 37174 | 18784 | – | 18394 | – | 18470 | 22401 | 23120 | 26854 | 36645 | 19743 | 15723 | Incorporation [37]: 9960; Incorporation [28]: 36088; Incorporation [29]: 35226; Incorporation [38]: 8734; Incorporation [36]: 35768; Incorporation [39]: 8437; Incorporation [30]: 41908; Incorporation [31]: 30792; Incorporation [40]: 11906; Incorporation [41]: 21841; Incorporation [42]: 38673; Incorporation [32]: 36977; Incorporation [43]: 8214; Incorporation [44]: 7043; Incorporation [34]: 43850 |
